From US6914045B2, “Glycopeptide antibiotics” (Wyeth Holdings Corporation, priority 2001, dated 2005)

Tests used:
Assay in all cases: in vitro antibacterial evaluation, MIC by broth dilution
Format in all cases: cell-based
Staphylococcus sp. = conditions: broth dilution, 18 hours at 35° C.; for MIC Staphylococcus aureus (GC 1131): strain GC 1131
Procedure, shortened: (§1)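 MIC, the lowest antibiotic concentration preventing growth, was read across 64-0.06 μg/mL with 5×10^5 CFU/mL inoculum. Method followed NCCLS M7-A2 broth dilution using Mueller-Hinton II; Gram-positive strains covered recent methicillin-, penicillin- and/or vancomycin-resistant clinical isolates.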

Escherichia coli = system: Escherichia coli
Procedure, shortened: as §1

Enterococcus sp. = conditions: broth dilution, 18 hours at 35° C.
Procedure, shortened: as §1

Streptococcus sp. = conditions: broth dilution, 18 hours at 35° C.
Procedure, shortened: as §1

CCCc1ccc(C2OCC3OC(OC4C(CO)OC(Oc5ccc(CC6NC(=O)C(C(C)c7ccccc7)NC(=O)CNC(=O)C(CO)NC(=O)C(C(O)C7CNC(=N)N7C7OC(CO)C(O)C(O)C7O)NC(=O)C(C(O)C7CNC(=N)N7)NC6=O)cc5)C(O)C4O)C(O)C(O)C3O2)cc1 (stereo not drawn) [Example 140, Cyclo[glycyl-β-methylphenylalanyl-O-[4-O-[4,6-O-(4-propylbenzylidene)hexopyranosyl]-hexopyranosyl]tyrosyl-3-(2-iminoimidazolidin-4-yl)seryl-3-(3-hexopyranosyl-2-iminoimidazolidin-4-yl)serylseryl]]
<0.5 µg/mL: MIC Staphylococcus aureus (GC 3053) (Staphylococcus sp.; strain GC 3053) | MIC Staphylococcus aureus (GC 4545) (Staphylococcus sp.; strain GC 4545) | MIC Coagulase Negative Staphylococcus (GC 4547) (Staphylococcus sp.; strain GC 4547) | MIC Coagulase Negative Staphylococcus (GC 4548) (Staphylococcus sp.; strain GC 4548) | MIC Coagulase Negative Staphylococcus (GC 4549) (Staphylococcus sp.; strain GC 4549) | MIC Coagulase Negative Staphylococcus (GC 4551) (Staphylococcus sp.; strain GC 4551) | MIC Coagulase Negative Staphylococcus (GC 6257) (Staphylococcus sp.; strain GC 6257) | MIC Enterococcus faecalis (ATCC 29212) (Enterococcus sp.; Enterococcus faecalis (ATCC 29212)) | MIC Enterococcus faecalis (ATCC 29212) (Enterococcus sp.; strain ATCC 29212) | MIC Streptococcus agalactiae (GC 4564) (Streptococcus sp.; Streptococcus agalactiae (GC 4564)) | MIC Streptococcus pneumoniae (ATCC 6301) (Streptococcus sp.; Streptococcus pneumoniae (ATCC 6301)) | MIC Streptococcus pneumoniae (GC 1894) (Streptococcus sp.; Streptococcus pneumoniae (GC 1894)) | MIC Streptococcus pneumoniae (GC 4565) (Streptococcus sp.; Streptococcus pneumoniae (GC 4565)) | MIC Streptococcus pyogenes (GC 4563) (Streptococcus sp.; Streptococcus pyogenes (GC 4563)) | MIC Streptococcus pneumoniae (ATCC 6301) (Streptococcus sp.; strain ATCC 6301) | MIC Streptococcus pneumoniae (GC 1894) (Streptococcus sp.; strain GC 1894) | MIC Streptococcus pyogenes (GC 4563) (Streptococcus sp.; strain GC 4563) | MIC Streptococcus agalactiae (GC 4564) (Streptococcus sp.; strain GC 4564) | MIC Streptococcus pneumoniae (GC 4565) (Streptococcus sp.; strain GC 4565)
1 µg/mL: MIC Staphylococcus aureus (GC 1131) (Staphylococcus sp.; inoculum 5×10^5 CFU/mL) | MIC Staphylococcus aureus (ATCC 29213) (Staphylococcus sp.; strain ATCC 29213) | MIC Staphylococcus aureus (GC 1131) (Staphylococcus sp.) | MIC Staphylococcus aureus (GC 3051) (Staphylococcus sp.; strain GC 3051) | MIC Staphylococcus aureus (GC 4541) (Staphylococcus sp.; strain GC 4541) | MIC Staphylococcus aureus (GC 4542) (Staphylococcus sp.; strain GC 4542) | MIC Staphylococcus aureus-SMITH (GC 4543) (Staphylococcus sp.; strain GC 4543) | MIC Staphylococcus aureus (GC 4544) (Staphylococcus sp.; strain GC 4544) | MIC Staphylococcus haemolyticus (GC 4546) (Staphylococcus sp.; strain GC 4546) | MIC Staphylococcus aureus-SMITH (GC 4543) (Staphylococcus sp.; strain SMITH GC 4543) | MIC Escherichia coli (GC 4560) (Escherichia coli; strain GC 4560, 18 hours at 35° C.) | MIC Enterococcus avium (GC 4558) (Enterococcus sp.; Enterococcus avium (GC 4558)) | MIC Enterococcus faecalis (GC 2691) (Enterococcus sp.; Enterococcus faecalis (GC 2691)) | MIC Enterococcus faecalis (GC 3059) (Enterococcus sp.; Enterococcus faecalis (GC 3059)) | MIC Enterococcus faecalis (GC 4552) (Enterococcus sp.; Enterococcus faecalis (GC 4552)) | MIC Enterococcus faecalis (GC 4553) (Enterococcus sp.; Enterococcus faecalis (GC 4553)) | MIC Enterococcus faecalis (GC 4554) (Enterococcus sp.; Enterococcus faecalis (GC 4554)) | MIC Enterococcus faecalis (GC 6189) (Enterococcus sp.; Enterococcus faecalis (GC 6189)) | MIC Enterococcus faecium (GC 2243) (Enterococcus sp.; Enterococcus faecium (GC 2243)) | MIC Enterococcus faecium (GC 4556) (Enterococcus sp.; Enterococcus faecium (GC 4556)) | MIC Enterococcus faecium (GC 4557) (Enterococcus sp.; Enterococcus faecium (GC 4557)) | MIC Enterococcus faecium (GC 2243) (Enterococcus sp.; strain GC 2243) | MIC Enterococcus faecalis (GC 2691) (Enterococcus sp.; strain GC 2691) | MIC Enterococcus faecalis (GC 3059) (Enterococcus sp.; strain GC 3059) | MIC Enterococcus faecalis (GC 4552) (Enterococcus sp.; strain GC 4552) | MIC Enterococcus faecalis (GC 4553) (Enterococcus sp.; strain GC 4553) | MIC Enterococcus faecalis (GC 4554) (Enterococcus sp.; strain GC 4554) | MIC Enterococcus faecium (GC 4556) (Enterococcus sp.; strain GC 4556) | MIC Enterococcus faecium (GC 4557) (Enterococcus sp.; strain GC 4557) | MIC Enterococcus avium (GC 4558) (Enterococcus sp.; strain GC 4558) | MIC Enterococcus faecalis (GC 6189) (Enterococcus sp.; strain GC 6189)
<1 µg/mL: MIC Enterococcus faecalis (GC 2242) (Enterococcus sp.; Enterococcus faecalis (GC 2242)) | MIC Enterococcus faecalis (GC 2242) (Enterococcus sp.; strain GC 2242)
64 µg/mL: MIC Escherichia coli (ATCC 25922) (Escherichia coli; strain ATCC 25922, 18 hours at 35° C.) | MIC Escherichia coli (GC 4559) (Escherichia coli; strain GC 4559, 18 hours at 35° C.)
